Ends that are not written are not given here.
Tests used:
S. aureus TISTR 517 [1] = assay: Cell lysis (OD 625 nm), leakage of genetic materials (A260) and viable count; type: cell-based, Staphylococcus aureus
Description: (§1) The lysis of bacterial cells was monitored by measuring the OD reduction at 625 nm, whereas the leakage of genetic material was evaluated by measuring the absorbance at 260 nm. Briefly, the bacterial colonies were collected from MH agar and then washed with PBS pH 7.4 three times. The OD at 625 nm of the washed cells was adjusted to 0.35 with PBS pH 7.4 supplemented with an incomplete medium (4% CAMHB) before the cells were transferred to a 96-well plate (100 μL/well). […] For each treatment condition at different time intervals, the reduction in OD at 625 nm was determined, and the supernatant of the treated samples was collected to measure the absorbance at 260 nm. The experiment was performed in triplicate, and the results were expressed as mean ± SD. Two-way ANOVA and post hoc Tukey’s test (p-value < 0.05) were used to determine the significance of differences between treated and non-treated samples.

MRSA isolate 2468 [2] = assay: as above; type: cell-based, Staphylococcus aureus; conditions: for cell lysis (OD 625 nm reduction): within 1 h, PBS pH 7.4 + 4% CAMHB, mean ± SD, triplicate
Description: as §1

S. aureus TISTR 517 [3] = assay: Thermal, surfactant and pH stability, remaining activity by agar well diffusion; type: physicochemical, Staphylococcus aureus; conditions: for % Remaining Activity: P1 15 μg/mL, vancomycin 300 μg/mL, mean ± SD, n=3
Description: (§2) The antimicrobial activity was measured by an agar well diffusion test with some modified methods. In brief, single colonies of the tested strains were suspended in 0.85% NaCl, and then the OD at 625 nm was adjusted to 0.1. The cell suspensions were spread on MH agar, and the tested samples (100 μL) were introduced into each well before incubation at 37 °C for 24 h. Each experiment was performed in three independent replicates, and the inhibition zone was measured and expressed as mean ± SD.
(§3) The stability of the anti-MRSA peptide against several conditions was studied. […] The sensitivity of the peptide sample to proteolytic enzymes was investigated by incubating the sample with proteinase K, trypsin, and α-chymotrypsin (1 mg/mL) for 1 h. Surfactant compatibility of the substance was examined by incubating the sample with 1% SDS and 1% Triton X-100 for 1 h (AppliChem GmbH, Darmstadt, Germany). The acid and base hydrolysis property of the substance was assessed by pH adjustment to 2–14 for 1 h before the samples were neutralized to pH 7. After all treatments, the antimicrobial assay by agar well diffusion against S. aureus TISTR 517 and MRSA isolate 2468 was performed in three independent experiments. The stability profiles were presented as the percentage of activity relative to the untreated condition (mean ± SD), and significant difference was determined by the Student’s t-test at a p-value < 0.05.

MRSA isolate 2468 [4] = assay: as above; type: physicochemical, Staphylococcus aureus; conditions: P1 15 μg/mL, vancomycin 300 μg/mL, mean ± SD, n=3
Description: as §2, §3

S. aureus TISTR 517 [5] = assay: microbe, parasite or virus in culture; type: cell-based, Staphylococcus aureus; conditions: TISTR 517, 24 h
Description: (§4) The MIC and MBC of the purified peptides from SPR-20 were determined by broth microdilution assay following a standard guideline. S. aureus TISTR 517 and MRSA isolate 142, 1096, and 2468 as bacterial strains were cultured in MH agar at 37 °C for 18 h. […] The cells were then diluted to 5 × 10^6 CFU/mL using cation-adjusted Mueller Hinton broth (CAMHB). The diluted cell suspension (10 μL) was transferred to each well of a 96-well plate. The purified peptide in the total volume of 100 µL was added to each well to obtain the final concentrations between 0.5 and 64 µg/mL. The standard antibiotics (vancomycin and cefoxitin) (Sigma-Aldrich Co., St. Louis, MO, USA) and antibiotic-free samples were the positive and negative controls, respectively. CAMHB without tested bacteria was used as a blank. The 96-well plates were incubated at 37 °C for 24 h, and the experiment was performed in triplicate for each strain. […] Subsequently, 100 µL of each dilution was spread on MH agar and then incubated at 37 °C for 24 h.

MRSA isolate 1096 = assay: microbe, parasite or virus in culture; type: cell-based, Staphylococcus aureus; conditions: isolate 1096, 24 h
Description: as §4

[6] = tested on: S. aureus TISTR 517 and MRSA strains; assay: microbe, parasite or virus in culture; type: cell-based, Staphylococcus aureus; conditions: TISTR 517 and strains, 18 h
Description: as §4

MRSA isolate 142 = assay: microbe, parasite or virus in culture; type: cell-based, Staphylococcus aureus; conditions: isolate 142, 24 h
Description: as §4

MRSA isolate 2468 [7] = assay: microbe, parasite or virus in culture; type: cell-based, Staphylococcus aureus; conditions: isolate 2468, 24 h
Description: as §4

[8] = 60 °C, 1 h, % of untreated sample
[9] = 80 °C, 1 h, % of untreated sample
[10] = 100 °C, 1 h, % of untreated sample
[11] = […], 15 psi, 15 min (autoclave), % of untreated sample
[12] = pH 2, 1 h, then neutralized to pH 7
[13] = pH 4, 1 h, then neutralized to pH 7
[14] = pH 5, 1 h, then neutralized to pH 7
[15] = pH 6, 1 h, then neutralized to pH 7
[16] = pH 8, 1 h, then neutralized to pH 7
[17] = pH 9, 1 h, then neutralized to pH 7
[18] = pH 11, 1 h, then neutralized to pH 7
[19] = pH 12, 1 h, then neutralized to pH 7
[20] = pH 13, 1 h, then neutralized to pH 7
[21] = pH 14, 1 h, then neutralized to pH 7
[22] = sample + 1% SDS, 1 h, % of untreated sample
[23] = sample + 1% Triton X-100, 1 h, % of untreated sample

What does the source list for VVVNVLVKVLPPPVV [Peptide P1]?
increase of genetic content in the supernatant (A260) (S. aureus TISTR 517 [1]; 30 min, 1×-4× MIC): 1.09–1.60 times; inhibition by viable cell count (S. aureus TISTR 517 [1]; 24 h, 1× MIC): 8.60 ± 0.26%; cell lysis (S. aureus TISTR 517 [1]; 24 h, 1×-4× MIC): more than 39.67%; increase of genetic release (A260) (S. aureus TISTR 517 [1]; 24 h, 1×-4× MIC): 2.05–2.29 times; inhibition by viable cell count (S. aureus TISTR 517 [1]; 24 h, 2× MIC): 67.63 ± 1.96%; inhibition by viable cell count (S. aureus TISTR 517 [1]; 24 h, 4× MIC): 94.35 ± 9.78%; cells destroyed (OD 625 nm reduction) (S. aureus TISTR 517 [1]; first hour, 1× MIC, PBS pH 7.4 + 4% CAMHB, mean ± SD, triplicate): 21.08 ± 1.11%; increase of genetic content in the supernatant (A260) (MRSA isolate 2468 [2]; 30 min, 1×-4× MIC): 1.15–1.47 times; inhibition by viable cell count (MRSA isolate 2468 [2]; 24 h, 1× MIC): 34.46 ± 0.64%; increase of genetic release (A260) (MRSA isolate 2468 [2]; 24 h, 1×-4× MIC): 1.81–2.07 times; inhibition by viable cell count (MRSA isolate 2468 [2]; 24 h, 2× MIC): 64.47 ± 3.56%; inhibition by viable cell count (MRSA isolate 2468 [2]; 24 h, 4× MIC): 96.13 ± 6.70%; cell lysis (OD 625 nm reduction) (MRSA isolate 2468 [2]; 1× MIC): 12.68 ± 13.57%; cell lysis (OD 625 nm reduction) (MRSA isolate 2468 [2]; 2× MIC): 26.13 ± 9.48%; cell lysis (OD 625 nm reduction) (MRSA isolate 2468 [2]; 4× MIC): 20.75 ± 2.75%; % Remaining Activity (S. aureus TISTR 517 [3]; [8]): 100.49 ± 0.84%; % Remaining Activity (S. aureus TISTR 517 [3]; [9]): 100.00 ± 0.84%; % Remaining Activity (S. aureus TISTR 517 [3]; [10]): 100.00 ± 0.84%; % Remaining Activity (S. aureus TISTR 517 [3]; [11]): 98.54 ± 1.69%; % Remaining Activity (S. aureus TISTR 517 [3]; [12]): 98.48 ± 3.17%; % Remaining Activity (S. aureus TISTR 517 [3]; [13]): 97.97 ± 5.77%; % Remaining Activity (S. aureus TISTR 517 [3]; [14]): 97.46 ± 2.64%; % Remaining Activity (S. aureus TISTR 517 [3]; [15]): 97.97 ± 3.17%; % Remaining Activity (S. aureus TISTR 517 [3]; pH 7, 1 h): 97.97 ± 1.76%; % Remaining Activity (S. aureus TISTR 517 [3]; [16]): 102.54 ± 3.17%; % Remaining Activity (S. aureus TISTR 517 [3]; [17]): 100.00 ± 1.49%; % Remaining Activity (S. aureus TISTR 517 [3]; [18]): 98.01 ± 2.28%; % Remaining Activity (S. aureus TISTR 517 [3]; [19]): 96.52 ± 2.28%; % Remaining Activity (S. aureus TISTR 517 [3]; [20]): 98.51 ± 1.49%; % Remaining Activity (S. aureus TISTR 517 [3]; [21]): 101.00 ± 1.72%; % Remaining Activity (S. aureus TISTR 517 [3]; [22]): 114.49 ± 3.53 %; % Remaining Activity (S. aureus TISTR 517 [3]; [23]): 125.23 ± 2.92 %; activity remaining under several stress conditions (S. aureus TISTR 517 [3]; text summary of Table 6, both test strains): over 90%; % Remaining Activity (MRSA isolate 2468 [4]; [8]): 100.00 ± 0.79%; % Remaining Activity (MRSA isolate 2468 [4]; [9]): 99.08 ± 0.00%; % Remaining Activity (MRSA isolate 2468 [4]; [10]): 98.62 ± 0.79%; % Remaining Activity (MRSA isolate 2468 [4]; [11]): 98.62 ± 0.79%; % Remaining Activity (MRSA isolate 2468 [4]; [12]): 97.57 ± 1.46%; % Remaining Activity (MRSA isolate 2468 [4]; [13]): 99.03 ± 1.46%; % Remaining Activity (MRSA isolate 2468 [4]; [14]): 97.09 ± 1.68%; % Remaining Activity (MRSA isolate 2468 [4]; [15]): 97.57 ± 3.85%; % Remaining Activity (MRSA isolate 2468 [4]; pH 7, 1 h): 97.57 ± 5.25%; % Remaining Activity (MRSA isolate 2468 [4]; [16]): 97.09 ± 2.22%; % Remaining Activity (MRSA isolate 2468 [4]; [17]): 98.03 ± 1.71%; % Remaining Activity (MRSA isolate 2468 [4]; [18]): 98.03 ± 2.26%; % Remaining Activity (MRSA isolate 2468 [4]; [19]): 97.54 ± 0.00%; % Remaining Activity (MRSA isolate 2468 [4]; [20]): 99.51 ± 0.85%; % Remaining Activity (MRSA isolate 2468 [4]; [21]): 100.00 ± 3.08%; % Remaining Activity (MRSA isolate 2468 [4]; [22]): 117.13 ± 1.60 %; % Remaining Activity (MRSA isolate 2468 [4]; [23]): 115.74 ± 0.80 %; MBC (S. aureus TISTR 517 [5]): 4 µg/mL; MIC (S. aureus TISTR 517 [5]): 2 µg/mL; MBC (MRSA isolate 1096): 4 µg/mL; MIC (MRSA isolate 1096): 2 µg/mL; MIC [6]: 1.27 µM; MBC (MRSA isolate 142): 4 µg/mL; MIC (MRSA isolate 142): 2 µg/mL; MBC (MRSA isolate 2468 [7]): 4 µg/mL; MIC (MRSA isolate 2468 [7]): 2 µg/mL
